79 molecules from the METLIN SMRT retention time set (Domingo-Almenara et al. 2019) can be followed below.

The nature of the data set: gradient 5% acetonitrile 3 min, to 50% in 2 min, to 85% in 15 min, held 3 min, 100 µL/min. To be noted: column: Zorbax Extend-C18 2.1 x 50 mm; eluents: water / acetonitrile, 0.1% formic acid. The essentials: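 In both positive and negative ionization mode, a quadrupole time-of-flight mass spectrometer coupled to HPLC analyzed pure standards run in mixtures of ~100 molecules. The Zorbax Extend-C18 column (2.1 × 50 mm, 1.8 μm) was operated at 100 μL/min with water and acetonitrile, each containing 0.1% formic acid. The dead volume was 40 μL and the dwell volume 900 μL. Retention time came from adduct peaks that were computationally picked and individually inspected by hand.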
In the case of `COc1ccc(CNc2nc3ccncc3n(C(C)C)c2=O)cc1`, the RP-LC retention time is 652 s. In turn, `O=C1CCCc2cc(S(=O)(=O)N3CCC(C(=O)NCc4cccs4)CC3)ccc2N1` registered an RP-LC retention time of 695 s.

Turning to `COc1ccc(S(=O)(=O)N2C[C@@H]3C[C@H](NC(=O)c4cccs4)[C@H]2C3)cc1Cl`, the RP-LC retention time amounted to 792 s.

The molecule `CC1CCN(S(=O)(=O)c2ccc(-c3nnc(C(=O)NCc4cccs4)o3)cc2)CC1` returned an RP-LC retention time of 910 s.

`COc1ccc(-c2nc3cc(C)ccn3c2NC(=O)c2ccc(Cl)c([N+](=O)[O-])c2)cc1` came in with an RP-LC retention time of 736 s. The molecule `O=C(NCc1ccc(F)cc1)c1ccc(=O)n(CCN2CCOCC2)c1` returned an RP-LC retention time of 599 s. As for `CCOc1ccc(C2Cn3nnc(-c4nc(-c5ccncc5)no4)c3CO2)cc1` (centres undefined), the figure is 958 s; as for `CCOC(=O)CNC(=O)N(C)CCc1noc(-c2ccc(Cl)cc2)n1`, 789 s; as for `O=C(NC1CCc2ccccc21)C1CCN(c2ncccc2-c2nc(-c3ccccc3)no2)CC1` (centres undefined), 1120 s. In the case of `C=CCN1CCN(c2nc3cc(C(=O)OC)ccc3c(=O)n2-c2ccc(Cl)cc2)CC1`, the RP-LC retention time came to 681 s. `O=C(Nc1ccc2c(c1)OCCO2)N1CCC(Oc2ccccc2)C1` (centres undefined): the RP-LC retention time worked out at 639 s.

Regarding `COc1ccc(C(C)NC(=O)c2nc(N(C)C)c3c(C)cc(C)nc3n2)cc1` (centres undefined), the RP-LC retention time was 658 s. As to `COc1cccc(-c2ccc(=O)n(Cc3nc(-c4ccc(OC(C)C)cc4)no3)n2)c1`, the RP-LC retention time is 1140 s. The molecule `CCCOc1nc2ccccc2nc1N1CCCC(C(=O)Nc2cccc(CC)c2)C1` (centres undefined) had an RP-LC retention time of 1260 s. Regarding `COc1ccc(-c2nc(C3CC(=O)N(c4ccc(OC)c(OC)c4)C3)no2)cc1` (centres undefined), the RP-LC retention time worked out at 1180 s. `CCOc1ccc(S(=O)(=O)Nc2ccc(-c3cn4ccccc4n3)cc2)cc1` gave an RP-LC retention time of 661 s. Consider `CCCCC(C(=O)O)C(C)CC(=O)Nc1nc(-c2ccccc2)cs1` (centres undefined), for which the RP-LC retention time stood at 982 s. The molecule `Cc1ccccc1-c1noc(Cn2c(=O)n(Cc3ccc(F)cc3)c(=O)c3sccc32)n1` yielded an RP-LC retention time of 1150 s.

With `CC(C)CCNC(=O)C1(C)CN(S(=O)(=O)c2ccccc2)CC(=O)N1c1cccc(Cl)c1` (centres undefined), the RP-LC retention time was 1020 s. For the molecule `CCc1nn2c(CNC(=O)c3ccc(C(F)(F)F)cc3)c(C)nc2s1`, the RP-LC retention time came to 714 s.

Take `CC(=O)c1cccc(NC(=O)COc2ccccc2-c2nnc(-c3ccccc3)o2)c1`: the RP-LC retention time came to 1190 s.

`O=C(NCc1[nH]nc2ccccc12)c1cccc(Cl)c1` registered an RP-LC retention time of 805 s. Regarding `O=C1COc2ccc(S(=O)(=O)N3CCC(C(=O)NCc4ccc(Cl)cc4)CC3)cc2N1`, the RP-LC retention time was 832 s. `Cc1ccccc1-c1noc(Cn2c(=O)n(Cc3ccccc3Cl)c(=O)c3sccc32)n1` came in with an RP-LC retention time of 1200 s.

`Cc1ccc(CS(=O)(=O)N2CCC(CN3CCCCCC3)CC2)cc1C`: the RP-LC retention time came to 723 s. As for `Cc1ccc(CNC(=O)C2CCN(CCc3cn(C)c4ncccc34)CC2)cc1`, the figure is 615 s; as for `O=C(c1csc(C(=O)N2CCCC2)n1)N1CCSCC1`, 700 s.

`COC(=O)c1ccccc1NC(=O)NCCn1c(C)nc2ccccc21` returned an RP-LC retention time of 630 s.

In turn, `Cc1ccc(NS(=O)(=O)c2cc(-c3nc(C(C)(C)C)cs3)cs2)c(F)c1` yielded an RP-LC retention time of 1260 s.

In turn, `Cc1cc2c(cc1S(=O)(=O)N1CCC(C(=O)NCc3ccc(Cl)cc3)CC1)OCC(=O)N2` returned an RP-LC retention time of 786 s. For `CCCNC(=O)c1cc(C)nc2c(C)cc(C)cc12`, the RP-LC retention time came out at 650 s. Regarding `CC1=C(c2ccccc2)S(=O)(=O)N=C1N1CCCN(C(=O)Cc2ccsc2)CC1`, the RP-LC retention time is 721 s. On to `COc1ccc(Cl)cc1NC(=O)c1c(O)c2cccc3c2n(c1=O)CC3`, for which the RP-LC retention time is 1330 s. `CCN(Cc1ccncc1)C1CN(C(=O)c2ccc3ncccc3c2)C1` gave an RP-LC retention time of 560 s.

`O=C(Nc1ccccc1)N1CCN(Cc2nc(-c3ccccc3)cs2)CC1` displayed an RP-LC retention time of 612 s.

On to `CCN1c2cc(Cl)ccc2C(=O)NC12CCN(C(=O)Nc1ccccc1OC)CC2`, for which the RP-LC retention time came out at 858 s.

`Cc1sc(NC(=O)c2cccnc2)nc1-c1ccc2c(c1)NC(=O)C(C)O2` (centres undefined) displayed an RP-LC retention time of 718 s. Regarding `O=C(NCc1ccc(F)cc1)C1CCCN(c2nccnc2Sc2ccccc2)C1` (centres undefined), the RP-LC retention time is 1020 s.

`Cc1ccsc1C(=O)N1CCC2(CC1)NC(=O)N(Cc1cccc(Cl)c1)C2=O` gave an RP-LC retention time of 852 s. `Cc1oc(C2CCN(S(=O)(=O)c3ccc(F)cc3)CC2)nc1C(=O)N1CCOCC1`: the RP-LC retention time is 789 s. Molecule `COc1ccc(OC)c(NS(=O)(=O)c2cc3c4c(c2)CCC(=O)N4CCC3)c1` came in with an RP-LC retention time of 804 s. For `Cc1ccc(CNC(=O)Cn2c(N)nc(C)cc2=O)cc1` the value was 595 s; for `CC1Sc2ccc(S(=O)(=O)N3CCC(C(=O)N4CCc5ccccc5C4)CC3)cc2NC1=O` (centres undefined), 882 s. As for `COc1ccc(Cl)cc1-n1nnc(C(=O)NC2CC2)c1-c1ccncc1`, the figure is 715 s; as for `CC1CCN(c2ccc(CNc3nc4ccncc4n(C)c3=O)cc2)CC1`, 559 s; as for `CCOc1ccc2c(n1)CCN(C(=O)NC1CCCC1)C2`, 731 s. As for `O=C(NC1CCCCC1)C1CCN(S(=O)(=O)c2cc(C(=O)N3CCCCCC3)cs2)CC1`, the figure is 902 s; as for `Cc1cccc(Nc2nc(-c3ccc(C(C)C)cc3)cs2)n1`, 1130 s.

In turn, `CSc1ccc(N2C=NS(=O)(=O)c3cccnc32)cc1` had an RP-LC retention time of 810 s.

For the molecule `CCc1cc(=O)n(CC(=O)NCCc2ccc(Cl)cc2)c(N2CCOCC2)n1`, the RP-LC retention time stood at 803 s. The molecule `O=C(CN1C(=O)CCc2cc(Br)ccc21)NCc1cccnc1` displayed an RP-LC retention time of 614 s. Turning to `COC(=O)C(C)NC(=O)N1CCN(c2nc3ccccc3n3cccc23)CC1` (centres undefined), the RP-LC retention time worked out at 605 s. On to `O=S(=O)(Cc1ccccc1Cl)N1CCC(CN2CCCCCC2)CC1`, for which the RP-LC retention time amounted to 675 s. As to `CCc1ccc(-c2cc(C(F)(F)F)on2)cc1S(=O)(=O)N1CCN(c2ccccn2)CC1`, the RP-LC retention time turned out to be 933 s.

As to `Cc1ccc2nc(-c3ccccc3Cl)c(Nc3ccc(Cl)cc3)n2c1`, the RP-LC retention time came out at 780 s.

The molecule `COc1cccc(S(=O)(=O)N2CCC(CN3CCCC(C)C3)CC2)c1` (centres undefined) came in with an RP-LC retention time of 662 s.

On to `O=C(C1CCCC1)N1CCN(c2cc(-c3ccccc3)[nH]n2)CC1`, for which the RP-LC retention time turned out to be 782 s. `CCN1C(=O)c2cccnc2Sc2cc(CNC(=O)Cc3ccccc3F)ccc21` came in with an RP-LC retention time of 767 s.

With `Cc1cccc(CC(=O)N2C[C@@H]3C[C@H]2C[C@@H]3NC(=O)c2cccs2)c1`, the RP-LC retention time stood at 778 s. For `O=C(O)C1CCN(c2nc3ccc(-c4ccc(F)cc4)nc3s2)CC1` the value was 902 s; for `Cc1cnc(C)n1C1CCN(S(=O)(=O)c2ccccc2)CC1`, 634 s.

Molecule `COC1CCOC2(CCN(C(=O)c3ccco3)CC2)C1` (centres undefined) showed an RP-LC retention time of 645 s.

For the molecule `N#Cc1cccc(Cn2nc(-c3nc(-c4ccc(Cl)cc4)no3)ccc2=O)c1`, the RP-LC retention time is 1100 s. Take `Cc1ccccc1NC(=O)CN1C(=O)CCc2cc(Br)ccc21`: the RP-LC retention time was 884 s. Consider `O=C(c1cc(S(=O)(=O)N2CCCC(C(=O)N3CCCCC3)C2)c[nH]1)N1CCCC1` (centres undefined), for which the RP-LC retention time was found to be 716 s. In turn, `O=C(c1cnn(-c2ccccc2)n1)N1CCCC(COCc2ccccc2)C1` (centres undefined) gave an RP-LC retention time of 1110 s. The molecule `CC(C)n1nc2c(S(=O)(=O)N3CCCCC3)cccn2c1=O` showed an RP-LC retention time of 803 s. Take `Cc1ccc(-c2ccc3nn(Cc4nc(-c5cccc(C(F)(F)F)c5)no4)c(=O)n3n2)cc1`: the RP-LC retention time was 1090 s. Molecule `Cc1ccc(OCC(O)Cn2c(C3CC3)nc3ccccc32)cc1` (centres undefined) had an RP-LC retention time of 697 s. In the case of `CC(C)NC(=O)c1ccc(OCC2CCN(C(=O)c3cccc(Cl)c3)CC2)cc1`, the RP-LC retention time amounted to 899 s. As for `CC(NC(=O)C1CCN(S(C)(=O)=O)c2cc(Cl)ccc2O1)c1ccccc1` (centres undefined), the RP-LC retention time worked out at 935 s. For `COc1ccc(S(=O)(=O)N2CCCC(C(=O)NCCO)C2)cc1OC` (centres undefined) the value was 597 s.

As to `Cc1ccccc1CNC(=O)C1(C)CCCN(S(=O)(=O)c2ccccc2)C1` (centres undefined), the RP-LC retention time stood at 944 s.

Molecule `CC(C)CC(NC(=O)Cc1ccccc1F)C(=O)Nc1nc2ccccc2[nH]1` (centres undefined) registered an RP-LC retention time of 740 s. As to `Cn1nc(-c2nnc(-c3ccc(F)cc3)o2)c2c1CCN(S(=O)(=O)c1ccc3c(c1)CCCC3)C2`, the RP-LC retention time amounted to 1090 s. As for `CSc1ccc(-c2nc3cnccn3c2Nc2ccccc2)cc1`, the figure is 930 s; as for `O=[N+]([O-])c1cccc(-c2ccc(SCc3ccccn3)nn2)c1`, 637 s. The molecule `Cn1cc(CCNC(=O)Cc2ccc(Cl)cc2)c2cccnc21` returned an RP-LC retention time of 696 s. Molecule `CN1CCN(CCCNc2ccc(-c3nc(-c4ccc(F)cc4)no3)cn2)CC1` had an RP-LC retention time of 626 s.
